Laboratory results from patent US20140287916A1, “PESTICIDAL COMPOUNDS” (SYNGENTA PARTICIPATIONS AG, priority 2011, published 2014).

| Structure (SMILES) | melting point |
| --- | --- |
| O=C(NCC1(c2nc(C3CC3)cs2)CC1)c1ccccc1C(F)(F)F [A.10, N-[[1-(4-cyclopropylthiazol-2-yl)cyclopropyl]methyl]-2-(trifluoromethyl)benzamide] | 83 to 84 °C |
| O=C(NCC1(c2ncc(C(F)(F)F)s2)CC1)c1ccccc1C(F)(F)F [A.29, 2-(trifluoromethyl)-N-[[1-[5-(trifluoromethyl)thiazol-2-yl]cyclopropyl]methyl]benzamide] | 94 to 96 °C |
| O=C(NCC1(c2nc(Cl)cs2)CC1)c1cccnc1C(F)(F)F [A.21, N-[[1-(4-chlorothiazol-2-yl)cyclopropyl]methyl]-2-(trifluoromethyl)pyridine-3-carboxamide] | 146 to 147 °C |
